Legend:
[1] = system: MDA-MB-468 TNBC cells; assay: MTT cell viability, SNI-1 analogs; format: cell-based, human; settings: 24 h
Description: FIGS. 22A-B show SNI-1 analogs enhance Adriamycin inhibition of TNBC cell growth. FIGS. 22A-B show cells treated with indicated dose of noted agent for 24 h, and their viabilities determined by MTT assay. Columns represent means of three independent experiments; bars, SE.
MDA-MB-468 TNBC cells were next treated with each of the analog in vitro as a single agent or in combination with Adriamycin in vitro.

[2] = MTT cell viability; format: cell-based, murine; settings: mouse, 4T1 TNBC cells; 1.0, 2.5, 5.0, or 10.0 μM over 24 h; read-out: loss of viability
Description: (§1) The murine TNBC cell line 4T1 that was derived from a spontaneously arising BALB/c mammary tumor were obtained from the Karmanos Cancer Institute (KCl), and were maintained in culture (Cheriyan et al. (2016) Oncotarget 7, 73370-73388). […] The cell culture media were also supplemented with 10% FBS, 100 units/ml of penicillin, and 100 μg/ml of streptomycin, and the cells were maintained at 37° C. and 5% CO2. For cell growth and MTT studies, the cells were cultured in fresh media with 5%-10% FBS prior to their treatments with various agents.
(§2) Cell Viability, Immunoprecipitation and Western Blot assays: 500-1000 cells were seeded in each well of 96 well plate and then either untreated (control) or treated with various agents for noted times. After treatment, MTT reagent was added at 0.5 mg/ml concentration for 2-4 hours at 37° C. DMSO was added to solubilize formazan and the plate was read at 570 nm in a plate reader. The histograms indicating levels of cell viability were generated by plotting the net absorbances (Rishi et al. (2003) J Biol Chem 278, 33422-33435; and Rishi et al. (2006) J Biol Chem 281, 13188-13198).

[3] = system: 4T1 TNBC cells; assay: MTT cell viability; format: cell-based, murine; settings: Mus musculus, 72 h
Description: as §1, §2

[4] = molecular target: T1, Flag-CARP-1 (546-580) binding with Biotin-NEMO (221-261) (Homo sapiens, UniProt Q8IX12); assay: AlphaLISA assay of CARP-1/NEMO peptide binding (HTS format); settings: biphasic, read-out: IC50, inhibition of binding of CARP-1 (546-580) with NEMO (221-261) peptide
T1 construct: Flag-tagged CARP-1 (546-580); purchased Peptides America, Fairfax, Va; host or cells: chemical synthesis
Source text: The predicted kinetics of interaction of CARP-1 (551-600; SEQ ID NO: 5) and NEMO (221-261; SEQ ID NO: 2) epitopes was further validated by utilizing respective, chemically synthesized peptides to determine their in-solution binding by SPR technology (Sekhar et al. (2019) Cancers (Basel) 11). […] On the collective basis of the data in FIG. 1, and biophysical and SPR data above, in vitro binding assays were developed utilizing chemically synthesized CARP-1 and NEMO peptides. In the first instance, CARP-1 (551-580; SEQ ID NO: 6) and NEMO (221-261; SEQ ID NO: 2) peptides were used to carry out buffer optimization and DMSO tolerance of the assay. […] Presence of 0.01% tween minimizes non-specific binding and generates higher reproducibility as noted by smaller error bars in FIG. 15A. […]
The AlphaLISA assay for high throughput screening: For screening of a library of chemical compounds, an […] assay was developed and optimized for use in 384-well format (SAMDI Tech, Chicago, Ill.). […] The assay signal (Fluorescence) was measured at 680 nm excitation and 615 nm emission wavelengths to determine assay robustness and DMSO tolerance. […] The plates were read on a Pherastar FS plate reader. […] Those wells were further analyzed to investigate the 8 compounds individually in duplicate.

[5] = system: RENCA renal cancer tumors; settings: mouse, in vivo
Description: The subcutaneous tumor bearing mice were treated with indicated agents. […] The end-points for assessing anti-tumor activity involved qualitative determination via tumor growth inhibition (% T/C) where T is the median tumor volume of the treated mice and C is the median tumor volume of the Control mice on any given day of measurement.

[6] = system: cleaved RIPK1; assay: Western blot for RIPK1 cleavage; format: cell-based
Source text: The cells were lysed to prepare protein extracts.

[7] = system: SUM149 cell-derived xenografts; assay: SUM149 BRCA1-mutant TNBC xenografts in NCr-SCID mice; format: in vivo; settings: 70 mg/kg daily×13, i.p. (parent) or i.v. (sodium salt)
Source text: BRCA1 mutant TNBC Tumor Model: Testing for germline BRCA1/2 mutations permits identification of BRCA1/2 status as clinically relevant in the selection of therapy for patients already diagnosed with breast cancer. BRCA status predicts responsiveness to platinum-based chemotherapy, as well as to inhibitors of poly(ADP-ribose) polymerase (PARP) in breast and ovarian cancers. […] A related objective of this pilot study was to determine whether and to the extent SNI-1 or its water soluble, di-sodium derivative will elicit effects in vivo.

[8] = MTT cell viability; format: cell-based; settings: human, wild-type HeLa cells; read-out: reduction in the viabilities
[9] = system: mammospheres derived from human TNBC PDX tumors; assay: Three-dimensional mammosphere assay (MTT); format: cell-based; settings: SNI-1 2.5 or 5.0 μM, Adriamycin 5 μM, 48 h
Description: Three-dimensional Mammosphere Assays: The PDX tumor cells were dissociated from the tumor fragments, and cultured for 2-dimensional and mammosphere studies in vitro (Cheriyan et al. (2016) Oncotarget 7, 73370-73388). Briefly, the cells were washed twice in 1×PBS, trypsinized, and pelleted at 200×g at room temperature. Cells were then re-suspended in 5 ml of mammosphere media (DMEM/F12 containing 2 mM L-glutamine, 100 U/ml penicillin, 100 U/ml streptomycin, 1×B27 supplement, 20 ng/ml recombinant human epidermal growth factor (EGF; Sigma), 10 ng/ml recombinant human basic fibroblast growth factor (bFGF; R&D Systems). Approximately 5000 viable cells per ml was then seeded in an ultra-low adherent 60 mm plate and incubated at 37° C. and 5% CO2 for two weeks without disturbing the plates. After the mammospheres formed, fresh media with or without Adriamycin (5 μM), SNI-1 (2.5 or 5.0 μM), or a combination of these agents was added and the cells incubated for additional 48 h at 37° C. and 5% CO2. The mammospheres in the untreated and treated plates were photographed, and the cells were then dissociated to determine their viabilities by the MTT assay (Cheriyan et al. (2016) Oncotarget 7, 73370-73388).

[10] = system: follicular cell lymphoma cells; assay: Cell viability, lymphoma; format: cell-based; settings: Homo sapiens; read-out: IC50, reduced viabilities

T1 sequence (Q8IX12 546-580 limits assumed): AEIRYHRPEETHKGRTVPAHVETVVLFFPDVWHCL

In the case of `Cc1ccc(-n2nnnc2SCC(=O)c2ccc(O)c(O)c2)cc1` [SNI-1, 1-(3,4-dihydroxyphenyl)-2-{(1-(4-methylphenyl)-1H-tetrazol-5-yl)thio}ethanone], the “loss of cell viability in combination with Adriamycin versus Adriamycin alone” value [1] is reported as “greater loss of cell viability”, the cytotoxicity at 24 h [2] is reported as 10 to 20% and the IC50 [3] is reported as 4 to 4.5 µM. For the same compound, the IC50 [4] was about 0.3 µM, the “weight loss in animals” value [5] was 0.4-4.0% and the “expression of cleaved RIPK1” value [6] was “induced expression of cleaved RIPK1”. For the same compound, the tolerability [7] was “well tolerated”, the cytotoxicity [8] was about 30% and the “growth/viability of mammospheres” value [9] was “failed to inhibit growth of mammospheres”. It also gave an IC50 [10] of about 7.5 µM.
